Laboratory results: patent publication EP4596534A1, “NONCOVALENT SMALL-MOLECULE INHIBITORS OF THE KEAP1-NRF2 INTERACTION” (University of Copenhagen, priority 2024, dated 2025)

Biological target: T1, human Keap1 Kelch domain (Homo sapiens, UniProt Q14145)
T1 construct: human Keap1 Kelch domain (residue 321-609, UniProt Q14145); made in house; host or cells: Escherichia coli BL21 (DE3) pLysS, pRSET A vector
Assay: Heterologous competition fluorescence polarization (FP) binding assay, Cy5-Nrf2 peptide probe
Details: mean ± SEM of at least 3 individual measurements; Keap1 Kelch 14 nM, Cy5-Nrf2 probe 3 nM, 4% DMSO
Method: The assay was performed in a 1 × HBSTET buffer (10 mM HEPES, 150 mM NaCl, 0.005% Tween20, 3 mM ethylenediaminetetraacetic acid (EDTA), 1 mM TCEP, pH = 7.4) using black flat-bottom 384-well plates (Corning Life Sciences, NY), a volume of 30 µL/well, and a final DMSO concentration of 4% or 8%. The assay plate was spun down to ascertain proper mixing and removal of potential air bubbles and incubated for 10-15 min at room temperature before measuring the FP levels on a Safire2 plate reader (Tecan, Männedorf, Switzerland). The g-factor was adjusted at each experiment so that a series of three blank wells containing probe but no Keap1 Kelch defined the baseline FP value. The Cy5-Nrf2 probe was measured at excitation/emission values of 635:670 nm. The FP values were fitted to the one-site specific binding equation: Y = Bmax × X/(Kd + X), with Bmax being the maximal FP value, X the Keap1 Kelch concentration, and Y the variable FP values. The Kd values were derived from the resulting binding saturation curve as being equal to the Keap1 Kelch concentration, where the curve is half-saturated.
The affinities between nonfluorescent small molecule Keap1 inhibitors and Keap1 Kelch were determined as Ki values in a heterologous competition FP binding assay. […] FP values were fitted to the equation Y = Bottom + (Top- Bottom)/[1 + (10^HillSlope×(log IC50-X))], where X is the logarithmic value of compound concentration. Hereby, the IC50 value was obtained, which together with the Kd value and probe and Keap1 Kelch concentrations was used to calculate the theoretical competitive inhibition constant, the Ki value.^43 Ki values are shown as mean ± SEM (standard error of mean) if based on two or more individual measurements.

T1 sequence (Q14145 321-609): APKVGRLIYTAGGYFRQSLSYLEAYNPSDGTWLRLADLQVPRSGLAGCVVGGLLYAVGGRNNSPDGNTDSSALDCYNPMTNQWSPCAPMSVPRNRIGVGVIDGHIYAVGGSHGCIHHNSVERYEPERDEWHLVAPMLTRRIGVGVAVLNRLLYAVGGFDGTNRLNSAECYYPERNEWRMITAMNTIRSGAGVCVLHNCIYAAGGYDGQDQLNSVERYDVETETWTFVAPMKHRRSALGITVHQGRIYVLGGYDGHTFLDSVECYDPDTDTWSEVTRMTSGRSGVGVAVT

| Structure (SMILES) | Ki [nM] |
| --- | --- |
| CCOc1ccc(S(=O)(=O)N2CCc3ccc(C(NC(=O)c4cccc5c4-c4ccccc4C54SCCS4)C(=O)O)cc3C2)cc1C#N (stereo not shown) [Compound K38, 2-(2-((3-cyano-4-ethoxyphenyl)sulfonyl)-1,2,3,4-tetrahydroisoquinolin-7-yl)-2-(spiro[fluorene-9,2'-[1,3]dithiolane]-4-carboxamido)acetic acid] | 170 ± 40 |
| CCOc1ccc(S(=O)(=O)N2Cc3ccc(C(NC(=O)c4cccc5c4-c4ccccc4C5=O)C(=O)O)cc3C2)cc1C#N (stereo not shown) [Compound K50, 2-(2-((3-cyano-4-ethoxyphenyl)sulfonyl)isoindolin-5-yl)-2-(9-oxo-9H-fluorene-4-carboxamido)acetic acid] | 3600 ± 400 |
| CCOc1ccc(S(=O)(=O)N2CCc3ccc(C(NC(=O)c4cccc5c4-c4ccccc4C5O)C(=O)O)cc3C2)cc1C#N (stereo not shown) [Compound K32, 2-(2-((3-cyano-4-ethoxyphenyl)sulfonyl)-1,2,3,4-tetrahydroisoquinolin-7-yl)-2-(9-hydroxy-9H-fluorene-4-carboxamido)acetic acid] | 590 ± 100 |
| O=C(O)CC(NC(=O)c1cccc2c1-c1ccccc1C2=O)c1ccc2c(c1)CN(S(=O)(=O)c1ccccc1)CC2 (stereo not shown) [Compound K46, 3-(9-oxo-9H-fluorene-4-carboxamido)-3-(2-(phenylsulfonyl)-1,2,3,4-tetrahydroisoquinolin-7-yl)propanoic acid] | 930 ± 210 |
